Laboratory results published in ChEMBL document CHEMBL1131733, “Dual-acting agents with alpha1-adrenoceptor antagonistic and steroid 5alpha-reductase inhibitory activities. Synthesis and evaluation of arylpiperazine derivatives” (Bioorg Med Chem Lett, 1999).

Key:
[1] = Antagonistic Alpha-1 adrenergic receptor activity against phenylephrine-induced contraction of rabbit prostate; format: functional, Oryctolagus cuniculus
[2] = molecular target: T1, Steroid 5-alpha-reductase (Rattus norvegicus, UniProt P24008+P31214); assay: Inhibition of Steroid 5-alpha-reductase from Dawley rat prostate; format: tissue-based, Prostate gland
T1 sequence (P24008 whole entry): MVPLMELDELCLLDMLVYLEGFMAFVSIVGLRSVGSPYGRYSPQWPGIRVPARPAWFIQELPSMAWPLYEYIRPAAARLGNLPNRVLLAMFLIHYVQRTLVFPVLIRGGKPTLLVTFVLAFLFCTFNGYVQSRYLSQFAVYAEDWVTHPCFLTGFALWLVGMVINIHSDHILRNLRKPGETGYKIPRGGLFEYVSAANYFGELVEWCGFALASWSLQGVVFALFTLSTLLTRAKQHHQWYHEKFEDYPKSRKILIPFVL
T1 sequence (P31214 whole entry): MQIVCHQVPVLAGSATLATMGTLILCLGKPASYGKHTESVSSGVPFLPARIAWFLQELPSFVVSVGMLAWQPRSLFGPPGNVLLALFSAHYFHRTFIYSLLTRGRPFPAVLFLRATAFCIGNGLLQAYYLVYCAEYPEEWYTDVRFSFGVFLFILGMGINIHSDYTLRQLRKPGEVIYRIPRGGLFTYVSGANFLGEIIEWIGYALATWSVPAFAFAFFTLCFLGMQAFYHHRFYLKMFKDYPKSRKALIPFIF

Oryctolagus cuniculus = assay: Dose required to inhibit increase in urethral pressure induced by phenylephrine in anesthetized rabbits by iv administration; format: functional
[3] = molecular target: Steroid 5-alpha-reductase (Rattus norvegicus) (UniProt P24008+P31214); assay: Inhibitory effect on prostatic Steroid 5-alpha-reductase, 2 hours after oral administration

SMILES: COc1ccccc1N1CCN(CCCOc2cc(C(=O)Nc3ccccc3OCCCC(=O)O)ccc2OCc2ccccc2)CC1
- pA2 [1]: 8
- IC50 [2]: 490 nM

SMILES: COc1ccccc1N1CCN(CCCOc2ccc(C(=O)c3cn(CCCC(=O)O)c4ccccc34)cc2OCc2ccccc2)CC1
- pA2 [1]: 7
- IC50 [2]: 360 nM

SMILES: COc1ccccc1N1CCN(CCCNc2cc(=O)n(C)c(=O)n2C)CC1
- pA2 [1]: 7.1

SMILES: COc1ccccc1N1CCN(CCOc2cc(C(=O)c3cn(CCCC(=O)O)c4ccccc34)ccc2OCc2ccc(C)cc2)CC1
- pA2 [1]: 6.8
- IC50 [2]: 4.8 nM

SMILES: COc1ccccc1N1CCN(CCCOc2cc(C(=O)c3cn(CCCC(=O)O)c4ccccc34)ccc2OCc2ccc(C)cc2)CC1
- pA2 [1]: 7.7
- IC50 [2]: 3.5 nM

SMILES: Cc1ccc(COc2ccc(C(=O)c3cn(CCCC(=O)O)c4ccccc34)cc2OCCCN2CCN(c3ccccc3OC(C)C)CC2)cc1
- pA2 [1]: 6.8
- IC50 [2]: 2.9 nM

SMILES: COc1ccccc1N1CCN(CCC(Oc2ccc(C(=O)Nc3ccccc3OCCCC(=O)O)cc2)c2ccccc2)CC1 (centres undefined)
- pA2 [1]: 7.6
- IC50 [2]: 920 nM

SMILES: COc1ccccc1N1CCN(CCCCOc2cc(C(=O)c3cn(CCCC(=O)O)c4ccccc34)ccc2OCc2ccc(C)cc2)CC1
- pA2 [1]: 6.7
- IC50 [2]: 1.5 nM

SMILES: CCOc1ccccc1N1CCN(CCCOc2cc(C(=O)c3cn(CCCC(=O)O)c4ccccc34)ccc2OCc2ccc(C)cc2)CC1
- pA2 [1]: 7.5
- Dose (Oryctolagus cuniculus): 0.3 mg/kg
- ED50 [3]: 7.9 mg/kg
- IC50 [2]: 1.5 nM

SMILES: CC(C)Cc1ccc(C(Nc2cccc(C(=O)c3cn(CCCC(=O)O)c4ccccc34)c2)c2ccc(CC(C)C)cc2)cc1
- IC50 [2]: 4.2 nM

SMILES: COc1ccccc1N1CCN(CCC(Oc2ccc(C(=O)Nc3ccccc3OCCCC(=O)O)cc2)c2ccc(C)cc2)CC1 (centres undefined)
- pA2 [1]: 7.8

SMILES: CCCOc1ccccc1N1CCN(CCCOc2cc(C(=O)c3cn(CCCC(=O)O)c4ccccc34)ccc2OCc2ccc(C)cc2)CC1
- pA2 [1]: 6.8
- IC50 [2]: 3 nM

SMILES: COc1ccccc1N1CCN(CCCOc2cc(C(=O)c3cn(CCCC(=O)O)c4ccccc34)ccc2OCc2ccccc2)CC1
- pA2 [1]: 7.8
- IC50 [2]: 11 nM

SMILES: CCc1ccc(COc2ccc(C(=O)c3cn(CCCC(=O)O)c4ccccc34)cc2OCCCN2CCN(c3ccccc3OC)CC2)cc1
- pA2 [1]: 6.6
- IC50 [2]: 4 nM

SMILES: COc1ccccc1N1CCN(CCCOc2ccc(C(=O)Nc3ccccc3OCCCC(=O)O)cc2OCc2ccccc2)CC1
- pA2 [1]: 7.2
- IC50 [2]: 3500 nM
